Literature values as cited in patent US6423719B1, “Method for treating benign prostate hyperplasia” (Upsher-Smith Laboratories, Inc., priority 1999, dated 2002).

Tests used:
[1] = for half life (plasma / elimination) / bioavailability: in vivo
5α-reductase = biological target: T1, 5α-reductase (Homo sapiens, UniProt P31213); conditions: stable enzyme complex with 5α-reductase
T1 sequence (P31213 1-254): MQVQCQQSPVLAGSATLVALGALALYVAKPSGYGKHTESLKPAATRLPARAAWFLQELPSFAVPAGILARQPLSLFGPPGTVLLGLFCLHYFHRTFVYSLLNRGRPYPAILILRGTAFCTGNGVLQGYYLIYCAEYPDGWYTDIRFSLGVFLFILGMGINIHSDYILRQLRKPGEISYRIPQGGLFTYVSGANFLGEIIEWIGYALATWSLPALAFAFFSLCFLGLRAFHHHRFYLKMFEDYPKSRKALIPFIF

[2] = in vivo

| Structure (SMILES) | half life (plasma / elimination) [1] | bioavailability [1] | also measured |
| --- | --- | --- | --- |
| CC(C)(C)NC(=O)[C@H]1CC[C@H]2[C@@H]3CC[C@H]4NC(=O)C=C[C@]4(C)[C@H]3CC[C@]12C [Finasteride, N-(2-methyl-2-propyl)3-oxo-4-aza-5α-androst-1-ene-17β-carboxamide] |  |  | turnover from the enzyme complex (t½) (5α-reductase): ~30 days |
| CC(COc1ccccc1)N(CCCl)Cc1ccccc1 (stereo not drawn) [Phenoxybenzamine] |  |  | half life ([1]; administered intravenously): approximately 24 hours |
| Cn1c(=O)c2[nH]cnc2n(C)c1=O [theophylline] |  |  | dose excreted unchanged in the urine [2]: about 10% |

More lines, main results first:

| half life (plasma / elimination) [1] | bioavailability [1] | Structure (SMILES) | also measured |
| --- | --- | --- | --- |
| about 5 hours |  | COc1cc2nc(N(C)CCCNC(=O)C3CCCO3)nc(N)c2cc1OC (stereo not drawn) [Alfuzosin] |  |
| about 5 hours | less than 30% | O=C(NC1CCN(CCc2c[nH]c3ccccc23)CC1)c1ccccc1 [Indoramin] |  |
| approximately 12 hours | greater than 90% | COc1cc2nc(N3CCN(C(=O)C4CCCO4)CC3)nc(N)c2cc1OC (stereo not drawn) [Terazosin] | water solubility: more water soluble than prazoin |
